Measured values as given in article PMC9686516, “Pharmacokinetic Characteristics of Nebulized Colistimethate Sodium Using Two Different Types of Nebulizers in Critically Ill Patients with Ventilator-Associated Respiratory Infections” (Antibiotics, 2022).

Conditions: in vivo
Description: Subjects were medically followed during the nebulization phase and the post-nebulization period for the development of side effects, especially those related to the respiratory system. In cases of significant hypoxemia and/or bronchospasm, the nebulization and lavage processes were suspended, and the patient was treated as clinically indicated.

## colistimethate sodium [CMS]
  deterioration of oxygenation during the nebulization: no instances of clinically important deterioration of oxygenation
